The record followed here is PubChem BioAssay AID651891 (Broad Institute, 2012).

This assay relates to L. donovani axenic amastigotes, Alamar blue, 72 h. The assay can be described thus: antileishmanial activity on axenic amastigotes – plate reader, cherry pick, dose response (AID 651891).

Activity calls are given as the source filed them.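 Rule for the calls: active = IC50 below three times the IC50 of the reference antileishmanial control drug; inactive = the rest.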

In general, IC50 refers to the midpoint of a concentration-inhibition curve. In the case of `C[C@@H]1CN([C@@H](C)CO)C(=O)c2cccc(NC(=O)c3ccncc3)c2O[C@H]1CN(C)Cc1ccc(Oc2ccccc2)cc1`, the IC50 is 21.2 µM (inactive).
